Measured values as given in US20240092768A1, “CRYSTAL FORM OF ANTI-INFLUENZA VIRUS COMPOUND, PREPARATION METHOD FOR CRYSTAL FORM, AND USE OF CRYSTAL FORM” (XIZANG HAISCO PHARMACEUTICAL CO., LTD., priority 2021, published 2024).

How the values were obtained:
IFV A/PR/8/34 = experiment: cytopathic effect (CPE) antiviral assay in MDCK cells, IFV A/PR/8/34; type: cell-based, influenza viruses; conditions: 120 h, CPE method, 5 days, CCK-8 cell viability
IFVA/Mal/302/54 = experiment: cytopathic effect (CPE) antiviral assay in MDCK cells, IFVA/Mal/302/54; type: cell-based, influenza viruses; conditions: 120 h, CPE method, 5 days, CCK-8 cell viability
IFVA/Weiss/43 = experiment: cytopathic effect (CPE) antiviral assay in MDCK cells, IFVA/Weiss/43; type: cell-based, influenza viruses; conditions: 120 h, CPE method, 5 days, CCK-8 cell viability
[1] = hygroscopicity experiment, dynamic vapor sorption (DVS); type: physicochemical; conditions: 25° C.
[2] = experiment of crystal form transformation in water; type: physicochemical; conditions: room temperature, stirring of magma for 7 days, XRPD

Compound: Cc1nnn([C@@H](c2ccccc2)C2CCN(C(=O)c3cc(-c4nc5cc(NC(=O)[C@@H]6C[C@@H]6F)ccc5o4)ccn3)CC2)n1 [Compound A, (1S,2S)-2-fluoro-N-(2-(2-(4-((R)-(5-methyl-2H-tetrazol-2-yl)(phenyl)methyl)piperidine-1-carbonyl)pyridin-4-yl)benzo[d]oxazol-5-yl)cyclopropane-1-carboxamide]
- EC50 (IFV A/PR/8/34): 12 nM
- EC50 (IFVA/Mal/302/54): 14 nM
- EC50 (IFVA/Weiss/43): 3 nM
- weight change in a range of 0% RH to 80% RH ([1]; listed as amorphous form of the compound A): approximately 3.8%

Compound: Cc1nnn([C@@H](c2ccccc2)C2CCN(C(=O)c3cc(-c4nc5cc(NC(=O)[C@@H]6C[C@@H]6F)ccc5o4)ccn3)CC2)n1 [crystal form I, (1S,2S)-2-fluoro-N-(2-(2-(4-((R)-(5-methyl-2H-tetrazol-2-yl)(phenyl)methyl)piperidine-1-carbonyl)pyridin-4-yl)benzo[d]oxazol-5-yl)cyclopropane-1-carboxamide]
- crystal form after stirring of magma in water [2]: remained unchanged after the magma
- weight change in a range of 0% RH to 80% RH [1]: approximately 0.3%
